For orientation: MIC means the least concentration at which growth counts as inhibited. For orientation: zone of inhibition means the extent of the growth-free halo in a diffusion test.

Data on 1 compound can be found in PMC8466373, “Plant-Derived and Dietary Hydroxybenzoic Acids—A Comprehensive Study of Structural, Anti-/Pro-Oxidant, Lipophilic, Antimicrobial, and Cytotoxic Activity in MDA-MB-231 and MCF-7 Cell Lines” (Nutrients, 2021).

Series [1] relates to E. coli, P. aeruginosa, S. aureus, B. subtilis, S. enteritidis, and C. albicans. As to the kind of experiment: MIC, stated for all tested strains together. It is filed as cell-based. The following applies: all of the tested strains. The protocol:
The following bacterial strains were used in this study: Escherichia coli (PCM 2857), Pseudomonas aeruginosa (PCM 2720), Bacillus subtilis (PCM 2850), Staphylococcus aureus (PCM 2267), Salmonella enteritidis (NCTC 4776), and Candida albicans (PCM 2566-FY). The microbial strains were bought from the Polish Collection of Microorganisms (Wroclaw, Poland) or the American Type Culture Collection. Bacteria (0.1 mL of the reconstituted suspension) were seeded onto sterile Mueller–Hinton agar plates (Biomaxima), to which previously suitable amounts of the tested compounds were added to give the desired concentration.
The MIC (minimal inhibitory concentration) was determined by serial dilution of the tested compound in an agar medium, to which the appropriate inoculum of microorganisms was then added and incubated. Escherichia coli, Pseudomonas aeruginosa, Staphylococcus aureus, Bacillus subtilis, Salmonella enteritidis, and Candida albicans were grown overnight and then resuspended in physiological saline to an optical density at 600 nm (OD = 600) of 0.60, corresponding to 5.0 × 10^8 CFU/mL. Bacteria (0.1 mL of the reconstituted suspension) were seeded onto sterile Mueller–Hinton agar plates, to which previously suitable amounts of the tested compounds were added to reach the desired concentration. Tested chemicals were dissolved in DMSO solution. Negative controls were agar plates, to which DMSO was added, while positive controls were plates with gentamycin (in the case of bacteria) or flucanozole (in the case of fungi). The plates were incubated at 37 °C for 24 h. The lowest concentration without visible bacterial growth was determined as the MIC.

Series [2] is described as follows: Lipophilicity via RP-HPLC. It is filed as physicochemical. The protocol:
The analyses were carried out on the following chromatographic columns: RP-18e Purospher STAR (C18), 150 mm × 4.0 mm, 5 µm, (Merck, Darmstadt, Germany); RP-8e Purospher STAR (C8), 150 mm × 4.6 mm, 5 µm, (Merck, Darmstadt, Germany); Zorbax Eclipse XDB-CN (CN), 150 mm × 4.6 mm, 5 µm, (Agilent Technologies, Santa Clara, CA, USA); Nucleosil Phenyl (PHE), 250 mm × 4.6 mm, 7 µm, (Supelco, Bellefonte, PA, USA); and Regis Rexchrom IAM.PC.DD.2 (IAM), 100 mm × 4.6 mm, 10 µm, (Regis Technologies Inc., Morton Grave, IL, USA). The experimental conditions and the calculations were as described in [46].

The test system of the next series is A. fumigatus. The following applies: concentration of 30 mg/mL; cited from earlier work.
The conditions of series [3]: cited from earlier work.
A short description of series [4]: CUPRAC assay (cupric-reducing antioxidant capacity). It is filed as biochemical. The following applies: concentration of 50 μM, methanolic solutions. On the procedure: CUPRAC assay was carried out according to the method described in [44]. First, […] of CuCl2 (C = 10 mM; in water) was mixed with […] of ammonium acetate (pH 7; in water) and neocuproine (C = 75 mM; in ethanol). […] The samples were mixed and incubated for 60 min at room temperature (23 °C). The absorbance of the samples was measured with a UV–Vis spectrophotometer at λ = 450 nm against a blank (containing 0.5 mL of methanol instead of the sample). […] R^2 = 0.9919).

The subject of another series is A. niger. The following applies: concentration of 30 mg/mL; cited from earlier work.
In another series the test system is A. flavus. Particulars: concentration of 30 mg/mL; cited from earlier work.
For another series, the system named is MDA-MB-231 cells. The arrangement: method as in PMID 31746356. The following applies: incubated for 48 h; cited from earlier work.
Series [5] relates to monocytes treated with hydrogen peroxide. The following applies: 200 μM; cited from earlier work.

In brackets after ≈: the same amount, converted by molar mass. Like-named read-outs stand apart in the source and are kept apart here.

With `O=C(O)c1cccc(O)c1O` [2,3-DHB, 2,3-Dihydroxybenzoic acid], the MIC in series [1] came out at 5000 µg/mL (≈ 32.4 mM). The log kw in [2] (C8 column) was determined as 1.70; in [2] (C18 column), 2.47; in series [2] (CN column), 1.59; in [2] (IAM column) it was 2.17; in series [2] (PHE column), 1.25. Further, the ϕ0 in series [2] (C8 column) stood at 0.87; in series [2] (C18 column), 0.60; in series [2] (CN column), 1.16; in series [2] (IAM column) it was 1.08; in [2] (PHE column), 0.93. Also, the figures for the zone of inhibition in the series with A. fumigatus, with A. niger and with A. flavus were 30 mm, 22 mm and 24 mm, respectively. For the same compound, the results for the pKaexp. in series [3] (at 25 °C), in series [3] (ref 104) and in series [3] (ref 105) were 2.91, 2.98 and 2.56, respectively. Also, the “CUPRAC assay: Trolox equivalent” value in [4] amounted to 60.83 µM. Also, in the series on MDA-MB-231 cells, the “concentration that inhibited colony formation” value is given as ~ 500 µM. Moreover, in series [5], the cell survival is reported as 50%.
